Patent US10034839B2, “Compositions and methods for delivery of kinase inhibiting peptides” (PURDUE RESEARCH FOUNDATION, priority 2012, dated 2018)

Legend:
[1] = KAFAK degradability assay in serum; format: in vitro ADME; details: for recovery at 12 hours / Integral of KAFAK Peak between 30-31% Acetonitrile: 12 hours at 37° C., then 24 hours at 4° C. (nanoparticles: purify & release in 2x salt)
Protocol: Samples tested include: peptide alone, serum alone, peptide in serum, and KAFAK loaded 5% AMPS nanoparticles in serum. Each sample volume also contained 0.5× PBS except when stated. Samples containing peptide initially contained 0.5 mg of peptide alone or 1.12 mg of loaded 5% AMPS particles with an equivalent amount of 0.5 mg peptide. Samples with serum were 0.5× serum and 0.5×PBS. Samples without serum were 0.5×PBS and 0.5× MilliQ water. Peptide alone, serum alone, peptide in serum, loaded nanoparticles alone, and loaded nanoparticles in serum were incubated for 12 hours at 37° C. on a shaker. After the 12 hour incubation, samples not containing nanoparticles were placed in the fridge at 4° C. for 24 hours before evaluation. Samples containing nanoparticles were centrifuged for 2 hours at room temperature at 30,000 rpm in an Optima L-90k Ultracentrifuge (Beckman Coulter, Indianapolis, Ind., USA). The nanoparticle pellet was briefly washed with MilliQ water and then resuspended in solution of 0.5×PBS and 0.5× MilliQ water. Samples were then placed in the fridge for 24 hours. Before the 24 hour nanoparticle sample was placed in the fridge to incubate, but after the pellet was dissolved, an additional amount of 0.257 molar concentration of NaCl was added to induce peptide release. This brought the final NaCl concentration to 0.342 molar or twice normal salt concentration in PBS. Additional NaCl was added to facilitate total release by introducing additional counter ions. Samples were evaluated by reverse phase chromotography on a FPLC (AKTA Explorer, GE Healthcare, Pittsburgh Pa., USA) with a 22/250 C18 prep-scale column (Grace Davidson, Deerfield, Ill., USA) and an acetonitrile gradient with 0.1% trifluoroacetic acid. Peptide was quantified by integrating the area under the peak of the FPLC. Peptide molecular weight was confirmed by time of flight MALDI mass spectrometry with a 4800 Plus MALDI TOF/TOF Analyzer (Applied Biosystems, Foster City, Calif., USA).

[2] = system: IL-6 production in cartilage plugs; assay: IL-6 ELISA in bovine knee ex vivo inflammatory model; details: IL-1β stimulated aggrecan depleted plugs, treatment every two days
Protocol: Cartilage plugs were obtained from three month old bovine knee joints obtained from an abattoir within 24 hours of slaughter (Dutch Valley Veal, South Holland, Ill., USA). The plugs were removed from the load bearing region of the femoral condyle using a 3 mm diameter cork borer. They were then washed three times in serum free medium and equilibrated for three days in 5% FBS supplemented media. Osteoarthritis (OA)-like conditions were simulated by removal of native aggrecan using a previously described protocol. Briefly, plugs were treated with 0.5% (w/v) trypsin in HBSS for 3 hours at 37° C. After trypsin treatment plugs were washed three times in HBSS and incubated with 20% FBS to inactivate residual trypsin activity. Inflammation was initiated in the plugs by treating with 20 ng/mL II-1β. Nanoparticle treatments as specified in Table 1, were added after day two of culture. Fresh IL-1β and nanoparticles were added every two days for an eight day culture period. Media aliquots were collected and stored in −80° C. till further analysis.
IL-6 production was determined with a bovine IL-6 ELISA development kit (Thermo Scientific, Rockford, Ill., USA). Capture antibody was coated overnight onto Nunc MaxiSorp 96-well plates. […] The plate was read on absorbance plate reader at 450 nm with a correction at 550 nm. […]

[3] = previously reported; cited from earlier work
THP-1 cells = details: THP1; corresponds to 60 μg dose of loaded particles; cited from earlier work
[4] = system: citrated bovine whole blood; assay: Activated partial thromboplastin time (whole blood coagulation time); details: for Whole Blood Coagulation Time (s) Average (n = 3): nanoparticles 1.5 mg/ml final concentration in blood, collagen 6 mg/ml, heparin .001 mg/ml; for effect on coagulation: whole blood, nanoparticles 1.5 mg/ml
Protocol: Activated partial thromboplastin time (aPTT) was measured using a Hemochron® Response whole blood coagulation system. 2 ml citrated bovine whole blood and 200 μL nanoparticles in phosphate buffered saline (PBS) pH 7.4 (1.5 mg/ml final concentration in blood) were added to Hemochron® tubes containing colloidal kaolin activating agent and 0.02% thimerosal preservative agent. PBS was calcium and magnesium free. The tubes were then measured and aPTT was recorded. The aPTT for each sample was measured in triplicate. […] Louis, Mo., USA). Measurements with heparin were stopped after 1000 seconds.
As part of a preliminary assessment of utilizing poly(NIPAm-MBA-AMPS) as a blood contacting drug delivery vehicle, whole blood studies were done to determine the hemocompatibility of this system.

blood = assay: Hemolysis assay ASTM F756; format: cell-based; details: nanoparticles 1.5 mg/ml, 37° C., 3 hours; Triton X-100 .01% by volume
Protocol: After 1000 seconds, experiments in the presence of heparin were stopped due to lack of clotting. Hemolytic assay ASTM standard protocol F756 was used to check if hemolysis occurred upon the addition of poly(NIPAm-MBA-AMPS) to the blood.
Hemolysis assays were performed following ASTM F756 with a BioSpec-1601 spectrophotometer (Shimadzu, Columbia, Md., USA). Determination of total blood hemoglobin was accomplished by using Drabkin's reagent and measuring the absorbance of free hemoglobin in solution at 540 nm. The total blood hemoglobin concentration was used to adjust the hemoglobin content of the blood sample to 10 mg±1 mg by adding blood and an equivalent amount of IX PBS solution. Percent hemolysis was normalized by dividing total hemolysis determined by a 0.01% v/v of Triton X-100, subtracting the absorbance of blood only, and setting absorbance of PBS to zero. Blood, 1 ml, was incubated with 100 μl of a 1.5 mg/ml solution of the nanoparticles in PBS at 37° C. for three hours under gentle shaking. After three hours samples were centrifuged at 750 g for 15 minutes. Supernatant was removed, added 1:1 to equivalent volume of Drabkins reagent, and incubated for 15 minutes before measurement. Absorbance measurements at 540 nm were then recorded using a spectrophotometer.

In the case of `CC(C)C[C@H](NC(=O)[C@H](C)NC(=O)[C@H](CCCCN)NC(=O)[C@H](CCCNC(=N)N)NC(=O)[C@H](Cc1ccc(O)cc1)NC(=O)[C@H](CC(C)C)NC(=O)[C@H](CCCNC(=N)N)NC(=O)[C@H](C)NC(=O)[C@H](C)NC(=O)[C@H](CC(C)C)NC(=O)[C@H](CCCCN)NC(=O)[C@H](C)NC(=O)[C@H](Cc1ccccc1)NC(=O)[C@H](C)NC(=O)[C@@H](N)CCCCN)C(=O)N[C@@H](C)C(=O)N[C@@H](CCCNC(=N)N)C(=O)N[C@@H](CCC(N)=O)C(=O)N[C@@H](CC(C)C)C(=O)NCC(=O)N[C@H](C(=O)N[C@@H](C)C(=O)N[C@@H](C)C(N)=O)C(C)C` [KAFAK], the recovery at 12 hours ([1]; 0.5× PBS and 0.5× MilliQ water (without serum), without serum) was 100%, the “Integral of KAFAK Peak between 30-31% Acetonitrile” value ([1]; in serum) was 0 mAU * ml and the recovery at 12 hours ([1]; in serum) was 0%. For the same compound, the “time within which KAFAK peptide degraded” value ([1]; serum, 37° C., without a carrier) was no more than 12 h, the “Integral of KAFAK Peak between 30-31% Acetonitrile” value ([1]; without serum) was 593.3 mAU * ml and the “effect on IL-6 production” value [2] was “lack of therapeutic activity”. For the same compound, the serum half-life [3] was “less than 12 hours” and the upper toxicity limit (THP-1 cells) was 30 µM.
In the case of Collagen, the “Whole Blood Coagulation Time (s) Average (n = 3)” value [4] was 26 s and the “effect on coagulation” value [4] was “induce clotting”.
With Heparin the “Whole Blood Coagulation Time (s) Average (n = 3)” value [4] was greater than 1000 s and the “effect on coagulation” value [4] was “inhibit coagulation”.
For Triton X-100, the “Normalized Whole Blood % Hemolysis Average (n = 3)” value (blood) was 100%.
